ChEMBL document CHEMBL1156560, “4-(1,1-Dioxo-1,4-dihydro-1lambda6-benzo[1,4]thiazin-3-yl)-5-hydroxy-2H-pyridazin-3-ones as potent inhibitors of HCV NS5B polymerase” (Bioorg Med Chem Lett, 2008)

Legend:
[1] = system: Hepatitis C virus; assay: Inhibition of HCV 1b BK delta21 NS5B delta21 polymerase; design: species or system Hepatitis C virus subtype 1b
[2] = Oral bioavailability in cynomolgus monkey at 1 mg/kg; type: ADME, organism-based, Macaca fascicularis; conditions: in vivo
[3] = Metabolic stability in monkey liver microsomes; type: ADME, Macaca mulatta, Microsome; conditions: rhesus monkey
[4] = Cytotoxicity against human Huh7/C24 cells after 72 hrs; type: cell-based, Huh-7
[5] = Metabolic stability in human liver microsomes assessed as half life; type: ADME, Microsome
[6] = system: Hepatitis C virus; assay: Antiviral activity against HCV 1b BK delta21 in Huh7/C24 cells after 72 hrs by replicon assay; type: functional, organism-based, Hepacivirus hominis; conditions: genotype 1b BK, Huh7/C24, 72 h
[7] = Apparent permeability from apical to basolateral side in human Caco-2 cells at 10 uM; type: ADME, cell-based

Row | SMILES | IC50 [1] | bioavailability [2] | half-life [3] | half-life [5] | EC50 [6] | Papp A→B at 10 µM [7] | CC50 at 72 h [4]
1 | CC(C)CCn1nc(-c2cccs2)c(O)c(C2=CS(=O)(=O)c3cc(N(C)S(C)(=O)=O)ccc3N2)c1=O | 1600 nM | – | – | – | – | – | –
2 | CC(C)CCn1nc(-c2cccs2)c(O)c(C2=CS(=O)(=O)c3cc(NS(C)(=O)=O)ccc3N2)c1=O | < 10 nM | 4% | 20 min | > 60 min | 1.1 nM | 0.012 ×10⁻⁶ cm/s | > 1000 nM
3 | CC(C)CCn1c(=O)c(C2=CS(=O)(=O)c3cc(N(C)S(C)(=O)=O)ccc3N2)c(O)c2cccn21 | 440 nM | 4% | 20 min | > 60 min | 940 nM | 0.012 ×10⁻⁶ cm/s | > 33000 nM
4 | CS(=O)(=O)Nc1ccc2c(c1)S(=O)(=O)C=C(c1c(O)c(-c3cccs3)nn(CC3CC3)c1=O)N2 | 15 nM | – | – | > 60 min | 3.5 nM | – | > 1000 nM
5 | CC(C)(C)CCn1c(=O)c(C2=CS(=O)(=O)c3cc(NS(C)(=O)=O)ccc3N2)c(O)c2cccn21 | < 10 nM | 1% | 4.7 min | 30 min | 1.5 nM | 0.3 ×10⁻⁶ cm/s | > 1000 nM
6 | Cc1ccc(-c2nn(Cc3ccccc3)c(=O)c(C3=CS(=O)(=O)c4cc(NS(C)(=O)=O)ccc4N3)c2O)s1 | 1600 nM | – | – | > 60 min | – | – | –
7 | CC(C)CCn1c(=O)c(C2=CS(=O)(=O)c3cc(NS(C)(=O)=O)ccc3N2)c(O)c2cccn21 | 27 nM | – | – | > 60 min | 13 nM | 0.027 ×10⁻⁶ cm/s | > 1000 nM
8 | CS(=O)(=O)Nc1ccc2c(c1)S(=O)(=O)C=C(c1c(O)c(-c3cccs3)nn(Cc3ccccc3)c1=O)N2 | 18 nM | – | – | > 60 min | 36 nM | – | > 1000 nM
9 | Cc1ccc(-c2nn(Cc3ccccc3)c(=O)c(C3=CS(=O)(=O)c4ccccc4N3)c2O)s1 | 12000 nM | 13% | 37 min | – | – | 0.3 ×10⁻⁶ cm/s | –
10 | CCC(C)(C)CCn1nc(-c2cccs2)c(O)c(C2=CS(=O)(=O)c3cc(NS(C)(=O)=O)ccc3N2)c1=O | < 10 nM | – | – | 30 min | 2.7 nM | – | > 1000 nM
11 | Cc1ccc(-c2nn(Cc3ccccc3)c(=O)c(C3=Nc4ccccc4S(=O)(=O)N3)c2O)s1 | – | 33% | > 60 min | – | – | 1.3 ×10⁻⁶ cm/s | –
12 | CC(C)CCn1nc(-c2cccs2)c(O)c(C2=Nc3ccc(NS(C)(=O)=O)cc3S(=O)(=O)N2)c1=O | – | – | – | – | – | 0.02 ×10⁻⁶ cm/s | –

Further lines, with some results ahead:

Row | IC50 [1] | bioavailability [2] | half-life [3] | half-life [5] | EC50 [6] | Papp A→B at 10 µM [7] | SMILES | CC50 at 72 h [4]
13 | – | 12% | – | – | – | 0.2 ×10⁻⁶ cm/s | CC(C)CCn1nc(-c2cccs2)c(O)c(C2=NS(=O)(=O)c3cc(N(C)S(C)(=O)=O)ccc3N2)c1=O | –
14 | < 10 nM | 0% | – | – | 8.5 nM | – | CC(C)CCn1c(=O)c(C2=Nc3ccc(NS(C)(=O)=O)cc3S(=O)(=O)N2)c(O)c2cccn21 | –
15 | 39 nM | – | – | 43 min | 15 nM | – | CS(=O)(=O)Nc1ccc2c(c1)S(=O)(=O)C=C(c1c(O)c(-c3cccs3)nn(CC3CCCC3)c1=O)N2 | > 1000 nM
16 | 9000 nM | – | – | > 60 min | – | – | Cc1ccc(-c2nn(Cc3ccccc3)c(=O)c(C3=CS(=O)(=O)c4cc(N(C)S(C)(=O)=O)ccc4N3)c2O)s1 | –
17 | 250 nM | 1% | 34 min | 36 min | 190 nM | 0.019 ×10⁻⁶ cm/s | CC(C)CCn1nc(-c2ccccc2)c(O)c(C2=CS(=O)(=O)c3cc(NS(C)(=O)=O)ccc3N2)c1=O | > 33000 nM
